Experimental data taken from patent US20260008768A1, “UREA DERIVATIVES FOR INHIBITING NLRP3 AND USES THEREOF” (VENTUS THERAPEUTICS U.S., INC., priority 2023, published 2026).

Target: T1, human NLRP3 (Homo sapiens, UniProt Q96P20)
Assay: Human PBMC NLRP3 Assay (LPS priming, ATP stimulation, cytokine measurement)
Type: cell-based
Design: host or cells: human PBMCs (A2); human whole blood from healthy volunteers (A3)
Settings: Table B, activity class; human PBMC, LPS + ATP
Experimental: Reagents: Human PBMCs (Normal): iXCells Cat #10HU-003; RPMI 1640 medium with GlutaMAX: ThermoFisher Cat #61870127 (Complete Media: 4.5 g/L D-glucose, 10% FBS, 100 mM NaPyr, 1% Pen/Strep, 10 mM HEPES and 0.05 mM of ®-mercaptoethanol; Assay Media: 4.5 g/L D-glucose, 100 mM NaPyr, 1% Pen/Strep, 10 mM HEPES and 0.05 mM of mercaptoethanol; 96-well V-bottom Plates: Costar Cat #3894; LPS (E. coli O26:B6): Sigma Cat #L2654, stock 5 mg/mL in PBS; ATP: Sigma Cat #A6419, prepared in a 250 mM stock in 1 M HEPES (adjusted to pH 7.4).
Cryopreserved PBMCs were rapidly thawed in a 37° C. water bath for 2 min. Cells were then centrifuged at 1200 RPM for 5 min and resuspended in ˜50 mL of fresh RPMI 1640 Complete Medium. A count was undertaken using a hemocytometer and adjusted to 2.5×10^5 cells/mL. V-shaped 96-well plates were seeded with 200 μL of PBMCs (5×10^4) per well and subsequently incubated overnight at 37° C. with 5% CO2. Assay Media was then prepared containing 100 ng/ml of LPS. PBMCs were then centrifuged at 1,200 RPM for 5 min, serum containing media was aspirated, and 150 μL/well of Assay Media+LPS was immediately added. Assay Media without LPS was added in the untreated control wells. Cells were then primed with LPS for 4 h at 37° C. with 5% CO2. A concentration response curve (CRC) was prepared of 1000× test compound in 100% DMSO. The CRC was then diluted 1:50 in Assay Media and then further diluted by 1:5× in Assay Media resulting in a final 4×CRC in 0.4% DMSO/Assay Media. 50 μL/well of 4× test compound CRC or vehicle (0.4% DMSO/Assay Media) was then transferred into each well and subsequently incubated for 30 min at 37° C. with 5% CO2. Cells were stimulated by adding 4 μL of 250 mM ATP, using a 250 mM stock prepared in 1 M Hepes without further dilution (for a final concentration of 5 mM), for 1 h at 37° C. with 5% CO2 Plates were then centrifuged at 1200 RPM for 5 min; and 50 μl of the media was transferred to a clean 96-well storage plate for cytokine measurements using the mesoscale platform, and stored at −80° C. until analyzed. Compounds were added 30 minutes before priming the cells with LPS when TNFα was required to be quantified in the cytokine panel to confirm selectivity.
PBMC NLRP3 IC50 assay results, as a measurement of cellular potency, are provided in Table B. “A” activity=<0.01 uM; “B” activity=0.01-0.1 uM; “C” activity=>0.1-0.5 uM; “D” activity=>0.5 uM.

T1 sequence (Q96P20 whole entry): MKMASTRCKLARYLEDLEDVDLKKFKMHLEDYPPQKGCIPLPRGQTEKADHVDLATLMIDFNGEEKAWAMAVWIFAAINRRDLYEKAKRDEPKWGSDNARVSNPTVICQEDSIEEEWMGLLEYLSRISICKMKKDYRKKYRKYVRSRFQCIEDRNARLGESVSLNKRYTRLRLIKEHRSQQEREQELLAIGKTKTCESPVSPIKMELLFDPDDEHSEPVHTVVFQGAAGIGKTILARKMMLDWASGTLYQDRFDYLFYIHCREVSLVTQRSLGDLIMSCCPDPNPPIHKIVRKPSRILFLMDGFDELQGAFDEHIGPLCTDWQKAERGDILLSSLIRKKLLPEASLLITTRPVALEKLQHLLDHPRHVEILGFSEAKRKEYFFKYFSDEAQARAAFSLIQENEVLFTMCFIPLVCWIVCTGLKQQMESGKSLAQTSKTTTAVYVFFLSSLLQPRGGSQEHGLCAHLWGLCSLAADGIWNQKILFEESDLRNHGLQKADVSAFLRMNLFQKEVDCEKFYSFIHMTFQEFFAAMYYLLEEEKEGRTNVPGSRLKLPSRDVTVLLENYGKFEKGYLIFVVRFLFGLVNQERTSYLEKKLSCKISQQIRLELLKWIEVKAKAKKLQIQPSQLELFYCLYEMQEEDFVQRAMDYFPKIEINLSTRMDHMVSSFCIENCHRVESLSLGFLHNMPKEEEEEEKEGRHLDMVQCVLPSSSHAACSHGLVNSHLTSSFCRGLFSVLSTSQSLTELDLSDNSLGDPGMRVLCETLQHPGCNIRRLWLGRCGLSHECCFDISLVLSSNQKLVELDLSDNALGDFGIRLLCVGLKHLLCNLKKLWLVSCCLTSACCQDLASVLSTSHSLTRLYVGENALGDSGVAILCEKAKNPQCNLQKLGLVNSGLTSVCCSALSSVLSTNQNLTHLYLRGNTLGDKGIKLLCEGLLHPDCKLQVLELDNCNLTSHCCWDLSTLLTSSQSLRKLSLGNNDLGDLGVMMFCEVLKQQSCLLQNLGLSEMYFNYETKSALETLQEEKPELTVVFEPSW

First: C[C@@H]1CCN(c2nnn[nH]2)C[C@H](NC(=O)N(C)c2ccc(C3CC3)cc2)C1 (single isomer, unassigned) [8A*]
Second: CN(C(=O)N[C@@H]1CCCN(c2nnn[nH]2)C1)c1ccc(Cl)cc1F [Compound 66, (R)-3-(1-(1H-tetrazol-5-yl)piperidin-3-yl)-1-(4-chloro-2-fluorophenyl)-1-methylurea]
The IC50 of the first is lower: < 0.01 µM for the first, > 0.5 µM for the second. The first is the more potent here.

Same assay, conditions: Table C; human PBMC, LPS + ATP

`O=C(N[C@H]1CCCN(c2ccccc2)C1)c1ccc(Cl)cc1` [Comparative Example J2, (S)-4-chloro-N-(1-phenylpiperidin-3-yl)benzamide, reference compound] and `O=C(N[C@@H]1CCCN(c2ccccc2)C1)c1ccc(Cl)cc1` [Comparative Example J1, (R)-4-chloro-N-(1-phenylpiperidin-3-yl)benzamide, reference compound] cannot be ordered by IC50: > 100 µM for the first, > 100 µM for the second.

`O=C(Nc1ccc(Cl)cc1)Nc1cccc(-c2nnn[nH]2)c1` [Comparative Example B1, 1-(3-(1H-tetrazol-5-yl)phenyl)-3-(4-chlorophenyl)urea, reference compound] and `O=C(N[C@@H]1CCCN(c2nnn[nH]2)C1)c1ccc(Cl)cc1` [Comparative Example G, (R)-N-(1-(1H-tetrazol-5-yl)piperidin-3-yl)-4-chlorobenzamide, reference compound] cannot be ordered by IC50: > 5 µM for the first, > 100 µM for the second.

First: CN(C(=O)N[C@H]1CCCN(c2ccccc2)C1)c1ccc(Cl)cc1 [Comparative Example D2, (S)-1-(4-chlorophenyl)-1-methyl-3-(1-phenylpiperidin-3-yl)urea, reference compound]
Second: CN(C(=O)N[C@@H]1CCCN(c2ccccc2)C1)c1ccc(Cl)cc1 [Comparative Example D1, (R)-1-(4-chlorophenyl)-1-methy1-3-(1-phenylpiperidin-3-yl)urea, reference compound]
The IC50 of the first is higher: > 100 µM for the first, 39.1 µM for the second. The second is the more potent here.

First: CN(C(=O)N(C)[C@@H]1CCCN(c2nnn[nH]2)C1)c1ccc(Cl)cc1 [Comparative Example C2, (R)-1-(1-(1H-tetrazol-5-yl)piperidin-3-yl)-3-(4-chlorophenyl)-1,3-dimethylurea, reference compound]
Second: CN(C(=O)N[C@@H]1CCN(c2nnn[nH]2)C1)c1ccc(Cl)cc1 (single isomer, unassigned) [Comparative Example A*, reference compound]
The IC50 of the first is lower: 58.1 µM for the first, > 100 µM for the second.

First: CN(C(=O)N[C@@H]1CCCN(c2nnn[nH]2)C1)c1ccc(Cl)cc1F [Compound 66, (R)-3-(1-(1H-tetrazol-5-yl)piperidin-3-yl)-1-(4-chloro-2-fluorophenyl)-1-methylurea]
Second: CN(C(=O)N[C@@H]1CCCN(c2nnnn2C)C1)c1ccc(Cl)cc1 [Comparative Example F, (R)-1-(4-chlorophenyl)-1-methyl-3-(1-(1-methy1-1H-tetrazol-5-yl)piperidin-3-yl)urea, reference compound]
The IC50 of the first is 17-fold lower: 0.892 µM for the first, 15.5 µM for the second.

Target: T1, human NLRP3
Assay: Scintillation Proximity (SPA) NLRP3 Assay, displacement of 3H-MCC950
Type: binding
Settings: Table B, activity class; displacement of 3H-MCC950 from human NLRP3
Method in brief: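 Human NLRP3 (350 nM) preincubated 15 min at RT with compound (5% DMSO final) in HEPES pH 7.5 buffer with 100 μM ADP, then 125 nM 3H-MCC950 added for 60 min. Copper PVT SPA beads added; counts read 6 h later. Specific binding = signal minus no-protein wells, duplicates averaged; IC50 reported.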

First: C[C@@H]1CCN(c2nnn[nH]2)C[C@H](NC(=O)N(C)c2ccc(C3CC3)cc2)C1 (single isomer, unassigned) [8A*]
Second: CC1CCN(c2nnn[nH]2)CC(NC(=O)N(C)c2ccc(Cl)cc2)C1 (single isomer, unassigned) [4D*]
The IC50 of the first is lower: < 1 µM for the first, 1 to 10 µM for the second. The first is the more potent here.

First: C[C@H]1CCN(c2nnn[nH]2)C[C@@H](NC(=O)N(C)c2ccc(OC(F)F)cc2F)C1 (single isomer, unassigned) [17D*]
Second: C[C@@H]1CCN(c2nnn[nH]2)C[C@@H](NC(=O)N(C)c2ccc(OC(F)F)c(F)c2)C1 (single isomer, unassigned) [15B*]
The IC50 of the first is higher: > 100 µM for the first, 1 to 10 µM for the second.

First: C[C@H]1C[C@H](NC(=O)N(C)c2ccc(OC(F)(F)F)c(F)c2F)[C@@H]2CC[C@H]1N2c1nnn[nH]1 (single isomer, unassigned) [59D*]
Second: C[C@H]1C[C@@H](NC(=O)N(C)c2ccc(C(F)(F)F)c(F)c2F)[C@@H]2CC[C@H]1N2c1nnn[nH]1 (single isomer, unassigned) [47C*]
The IC50 of the first is lower: 10 to 50 µM for the first, > 100 µM for the second.

`C[C@H]1CCN(c2nnn[nH]2)C[C@@H](NC(=O)N(C)c2ccc(OC(F)F)c(OC(F)F)c2)C1` (single isomer, unassigned) [16D*] and `C[C@@H]1CCN(c2nnn[nH]2)C[C@@H](NC(=O)N(C)c2ccc(OC(F)F)c(OC(F)F)c2)C1` (single isomer, unassigned) [16B*] fall in the same range of IC50: 1 to 10 µM for the first, 1 to 10 µM for the second.

First: C[C@@H]1C[C@H](NC(=O)N(C)c2ccc(C(F)(F)F)cc2F)[C@H]2CC[C@@H]1N2c1nnn[nH]1 (single isomer, unassigned) [48B*]
Second: C[C@H]1C[C@H](NC(=O)N(C)c2ccc(OC(F)(F)F)cc2F)[C@@H]2CC[C@H]1N2c1nnn[nH]1 (single isomer, unassigned) [56D*]
The IC50 of the first is higher: > 100 µM for the first, 1 to 10 µM for the second.

Compared with `C[C@H]1C[C@@H](NC(=O)N(C)c2c(F)cc(C3CC3)cc2F)[C@@H]2CC[C@H]1N2c1nnn[nH]1` (single isomer, unassigned) [60C*], `C[C@@H]1C[C@H](NC(=O)N(C)c2c(F)cc(OC(F)(F)F)cc2F)[C@H]2CC[C@@H]1N2c1nnn[nH]1` (single isomer, unassigned) [62B*] is higher in IC50: 50 to 100 µM for the first, > 100 µM for the second. The first is the more potent here.

First: C[C@H]1CCN(c2nnn[nH]2)C[C@@H](NC(=O)N(C)c2ccc(C(F)F)c(F)c2)C1 (single isomer, unassigned) [22D*]
Second: C[C@H]1CCN(c2nnn[nH]2)C[C@H](NC(=O)N(C)c2ccc(C(F)F)c(F)c2)C1 (single isomer, unassigned) [22C*]
The IC50 of the first is lower: 1 to 10 µM for the first, 10 to 50 µM for the second.

Compared with `C[C@H]1C[C@H](NC(=O)N(C)c2ccc(C(F)F)c(F)c2)[C@@H]2CC[C@H]1N2c1nnn[nH]1` (single isomer, unassigned) [53D*], `C[C@H]1C[C@H](NC(=O)N(C)c2ccc(Cl)c(F)c2)[C@@H]2CC[C@H]1N2c1nnn[nH]1` (single isomer, unassigned) [50D*] is lower in IC50: > 100 µM for the first, 10 to 50 µM for the second.

Compared with `C[C@H]1C[C@@H](NC(=O)N(C)c2ccc(OC(F)F)cc2F)[C@@H]2CC[C@H]1N2c1nnn[nH]1` (single isomer, unassigned) [57C*], `C[C@H]1C[C@H](NC(=O)N(C)c2ccc(OC(F)F)cc2F)[C@@H]2CC[C@H]1N2c1nnn[nH]1` (single isomer, unassigned) [57D*] is lower in IC50: 50 to 100 µM for the first, 1 to 10 µM for the second.

Compared with `C[C@H]1CCN(c2nnn[nH]2)C[C@@H](NC(=O)N(C)c2ccc(OC(F)(F)F)c(F)c2)C1` (single isomer, unassigned) [14D*], `C[C@@H]1CCN(c2nnn[nH]2)C[C@@H](NC(=O)N(C)c2ccc(Cl)c(F)c2)C1` (single isomer, unassigned) [12B*] is lower in IC50: 10 to 50 µM for the first, 1 to 10 µM for the second. The second is the more potent here.

First: C[C@H]1C[C@@H](NC(=O)N(C)c2ccc(OC(F)F)cc2)CN(c2nnn[nH]2)C1 [Compound 39A, 1-(4-(difluoromethoxy)phenyl)-1-methyl-3-((3R,5S)-5-methyl-1-(1H-tetrazol-5-yl)piperidin-3-yl)urea]
Second: C[C@H]1C[C@@H](NC(=O)N(C)c2ccc3ccnn3c2)CN(c2nnn[nH]2)C1 [Compound 36A, 1-methyl-3-((3R,5S)-5-methyl-1-(1H-tetrazol-5-yl)piperidin-3-yl)-1-(pyrazolo[1,5-a]pyridin-6-yl)urea]
The IC50 of the first is lower: < 1 µM for the first, > 100 µM for the second.

First: C[C@H]1C[C@H](NC(=O)N(C)c2ccc(OC(F)(F)F)c(F)c2)[C@@H]2CC[C@H]1N2c1nnn[nH]1 (single isomer, unassigned) [51D*]
Second: C[C@H]1C[C@@H](NC(=O)N(C)c2ccc(OC(F)F)c(OC(F)F)c2)[C@@H]2CC[C@H]1N2c1nnn[nH]1 (single isomer, unassigned) [64C*]
The IC50 of the first is lower: 10 to 50 µM for the first, > 100 µM for the second. The first is the more potent here.

Compared with `CC1CCN(c2nnn[nH]2)CC(NC(=O)N(C)c2cnc(C(F)(F)F)nc2)C1` (single isomer, unassigned) [31C*], `C[C@H]1CCN(c2nnn[nH]2)C[C@H](NC(=O)N(C)c2ccc(C(F)(F)F)c(F)c2F)C1` (single isomer, unassigned) [21C*] is higher in IC50: 10 to 50 µM for the first, > 100 µM for the second.

In the case of `C[C@@H]1CCN(c2nnn[nH]2)C[C@@H](NC(=O)N(C)c2c(F)cc(OC(F)(F)F)cc2F)C1` (single isomer, unassigned) [41B*], the IC50 is reported as 1 to 10 µM.

Same assay, conditions: Table C; displacement of 3H-MCC950 from human NLRP3

First: O=C(Nc1ccc(Cl)cc1)Nc1cccc(-c2nnn[nH]2)c1 [Comparative Example B1, 1-(3-(1H-tetrazol-5-yl)phenyl)-3-(4-chlorophenyl)urea, reference compound]
Second: C[C@H]1C[C@@H](NC(=O)N(C)c2ccc(OC(F)F)cc2)CN(c2nnn[nH]2)C1 [Compound 39A, 1-(4-(difluoromethoxy)phenyl)-1-methyl-3-((3R,5S)-5-methyl-1-(1H-tetrazol-5-yl)piperidin-3-yl)urea]
The IC50 of the first is 230-fold higher: 190 µM for the first, 0.82 µM for the second.
